Measured values: article PMC11427369 (Frontiers in Pharmacology, 2024)

Tests used:
[1] = target: C2IIa (Clostridium botulinum, UniProt O86171); type: biochemical
[2] = target: T1, PA63 (Bacillus anthracis, UniProt P13423); type: biochemical
T1 construct: gene pagA
T1 sequence (P13423 197-764 limits assumed): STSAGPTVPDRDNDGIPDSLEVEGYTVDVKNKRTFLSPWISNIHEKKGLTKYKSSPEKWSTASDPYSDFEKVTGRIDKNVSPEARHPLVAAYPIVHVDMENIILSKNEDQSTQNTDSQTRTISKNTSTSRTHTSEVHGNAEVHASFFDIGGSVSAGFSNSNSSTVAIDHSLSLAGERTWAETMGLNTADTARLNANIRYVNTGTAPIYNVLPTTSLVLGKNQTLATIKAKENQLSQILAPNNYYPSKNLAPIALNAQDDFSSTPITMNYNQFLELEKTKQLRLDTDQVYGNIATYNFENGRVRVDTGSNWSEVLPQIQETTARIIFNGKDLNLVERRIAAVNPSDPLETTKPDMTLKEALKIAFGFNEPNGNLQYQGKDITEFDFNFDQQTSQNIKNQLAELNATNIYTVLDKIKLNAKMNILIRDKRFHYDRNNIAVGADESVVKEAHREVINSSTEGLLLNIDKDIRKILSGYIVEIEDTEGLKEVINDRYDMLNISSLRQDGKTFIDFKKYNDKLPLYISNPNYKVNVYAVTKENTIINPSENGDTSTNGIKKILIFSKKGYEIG

Sequence of C2IIa (O86171 182-721 limits assumed): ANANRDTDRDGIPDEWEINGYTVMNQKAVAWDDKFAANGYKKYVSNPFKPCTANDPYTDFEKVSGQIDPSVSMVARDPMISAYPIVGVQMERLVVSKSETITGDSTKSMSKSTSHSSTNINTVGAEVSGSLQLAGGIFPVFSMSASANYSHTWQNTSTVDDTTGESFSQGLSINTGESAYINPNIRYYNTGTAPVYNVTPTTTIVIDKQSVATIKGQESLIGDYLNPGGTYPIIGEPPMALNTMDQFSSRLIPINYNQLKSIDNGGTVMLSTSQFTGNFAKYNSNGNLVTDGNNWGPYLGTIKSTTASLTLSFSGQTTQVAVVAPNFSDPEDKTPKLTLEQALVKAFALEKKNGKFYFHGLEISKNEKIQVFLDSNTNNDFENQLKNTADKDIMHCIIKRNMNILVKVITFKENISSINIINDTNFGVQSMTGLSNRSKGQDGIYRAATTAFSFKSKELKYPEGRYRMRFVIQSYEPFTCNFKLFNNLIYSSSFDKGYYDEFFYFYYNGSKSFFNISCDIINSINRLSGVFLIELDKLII

Q: With `CCN(CC)C(=S)SSC(=S)N(CC)CC` [disulfiram] as the compound, how does the “pore conductance block, planar lipid bilayer” value [1] read?
A: Its value is “addition of DSF led to an immediate block of any current flowing”.

Q: And the “pore conductance block, planar lipid bilayer” value [2]?
A: Its value is “addition of DSF immediately blocked any current flow, leading to zero level of conductance”.
